Experimental data as given in PMC5951806, “Rapid labelling and covalent inhibition of intracellular native proteins using ligand-directed N-acyl-N-alkyl sulfonamide” (Nature Communications, 2018).
“And” between values parts separate entries of the source, which are not always exact repeats. Equal values may be shown once. One block for each compound: values may come before it.

Tests used:
Hsp90α = system: Hsp90α; parameters: method as in Supplementary References 1 and 2; conditions: reported for Hsp90α; ref Supplementary References 1 and 2; cited from earlier work
endogenous Hsp90 = test: Hsp90 labelling with 11 in live HeLa cells in the presence of competitive Hsp90 inhibitors; conditions: 11 0.5 µM, 10 µM competitive inhibitor
FKBP12 [1] = biological target: T1, FKBP12 (Homo sapiens, UniProt P62942); test: FKBP12 labelling in vitro (MALDI-TOF MS); format: biochemical; conditions: for FKBP12 labelling yield: 5 µM FKBP12, 10 µM reagent, pH 7.2, 37 °C
T1 construct: GST (factor Xa site) (N, cleaved yes); made in house; host or cells: E. coli BL21 Star (DE3)
T1 sequence (P62942 whole entry): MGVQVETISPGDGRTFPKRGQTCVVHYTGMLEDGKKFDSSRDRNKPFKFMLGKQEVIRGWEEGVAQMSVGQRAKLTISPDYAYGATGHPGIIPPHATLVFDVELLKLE
Description: Recombinant human FKBP12 was obtained as described in Supplementary Methods.

FKBP12 [2] = biological target: T1, FKBP12; test: Kinetic analysis of FKBP12 labelling; format: biochemical; conditions: for kL, labelling rate constant: FKBP12 100 nM, HEPES pH 7.2, 37 °C, mean of triplicate ± s.d.; for Kd: from curve fitting of kapp vs reagent concentration, FKBP12, pH 7.2, 37 °C; for kinact/KI: pH 7.2, read-out: kL/Kd, second-order rate constant
Description: With the optimal NASA reactive group in hand, we next investigated the reaction kinetics of LD chemistry in in vitro protein labelling. The labelling reaction of LD chemistry follows Eq. (1):1 P+R⇆KdPR→kLP^* where P is a native (non-labelled) protein, R is the reagent, PR is the native protein–reagent complex, P* is the labelled-protein, Kd is the dissociation constant and kL is the rate constant for the labelling process. When [R] > [P], the pseudo-first-order reaction rate (kapp) is given as follows (see Supplementary Methods)[35]:2 P+PR/P0= exp-kappt 3 kapp=kL/1+Kd∕R […]
The reaction time courses of FKBP12 labelling with various concentrations of 1 (200–2000 nM) were monitored by MALDI-TOF MS (Fig. 3b) and plotted to determine kapp using Eq. (2) (Fig. 3c). The values of kapp obtained in this manner were then plotted against the concentration of 1, which were well fitted by Eq. (3) (Fig. 3d). The labelling rate constant kL and the dissociation constant Kd of 1 were determined from curve fitting analysis to be (6.1 ± 0.6) × 10^−3 s^−1 and (2.1 ± 0.2) × 10^−7 M, respectively (the mean of triplicate ± standard deviation (s.d)) (Table 1).
The residual ratio of nonlabelled protein ([P] + [PR]/[P]0) were determined by MALDI-TOF MS (matrix: CHCA). The pseudo-first order reaction rates (kapp) were obtained by fitting the data to Eq. (2). Kinetic parameters were obtained by fitting the data to Eq. (3).
Kinetics of labelling reaction of LD chemistri es
The labelling reaction of LD chemistr y follows as Supplementary Equation (2) 3: where P is a native (non- labelled) protein, R is a reagent, PR is a native protein- reagent complex, P* is a labelled-protein, Kd is a dissociation constant, and k L is a rate constant for labelling process. Hyd r o l ys i s (deactivation) of LD reagents during the labelling process is negligible owing to these stabilities in buffer s olution (Supplementary Figure 3, also see
Supplementary R eferences 4–6) . The equations to be solved for the rate of labelling reaction […]
The solution of the equat ions is
According to the Supplementar y Equation (4), the k L and Kd values were obtained from the […]
Preparation of purif ied FKB P12

FKBP12 [3] = biological target: T1, FKBP12; test: FKBP12 labelling in HeLa cell lysate (western blotting); format: biochemical; conditions: 37 °C
endogenous FKBP12 = biological target: T2, endogenous FKBP12 (Mus musculus, UniProt P26883); test: Chemical labelling of endogenous FKBP12 in C2C12 cells; format: cell-based; conditions: live C2C12 cells, 1 µM
T2 construct: endogenous FKBP12 inside live cells was specifically modified with biotin; endogenous in cells; host or cells: C2C12 mouse myoblast cells (ATCC)
T2 sequence (P26883 whole entry): as the sequence (P62942 whole entry) above, with M50T, T76I, P79S counted along it
Protocol: We then conducted intracellular endogenous FKBP12 labelling. Mouse myoblast C2C12 cells were incubated in culture medium containing 1 for 10–120 min at 37 °C. The cells were lysed and analysed by western blotting. […] Although the reaction rate was slightly slower than that of the in vitro experiments, probably because of the low membrane-permeability of 1, it should be noted that the labelled band was detectable after just 10 min incubation with 1, highlighting the rapid kinetics of LDNASA chemistry.
Mouse myoblast C2C12 cells (ATCC) (2.0 × 10^5 cells) were cultured in Dulbecco’s modified Eagle’s medium (DMEM) supplemented with 10% foetal bovine serum (FBS, Gibco), penicillin (100 units/ml), streptomycin ([…]), and amphotericin B (250 ng/ml), and incubated in a 5% CO2 humidified chamber at 37 °C. The cells were then incubated in FBS-free DMEM containing reagent (1 μM) at 37 °C for 120 min. As control experiments, the labelling was conducted in the presence of Rapamycin (10 μM). For western blot analysis, after washing twice with PBS, the cells were lysed with RIPA buffer (pH 7.4, 25 mM Tris–HCl, 150 mM NaCl, 0.1% SDS, 1% Nonidet P-40, 0.25% deoxycholic acid) containing 1% protease inhibitor cocktail set III (Calbiochem). […] The samples were subjected to SDS-PAGE and electro-transferred onto an Immun-Blot PVDF membrane (Bio-Rad). The labelled FKBP12 was detected by chemiluminescence analysis using Streptavidin-HRP conjugate, rabbit anti-FKBP12 antibody (Abcam, ab2918, 1:1000) and anti-rabbit IgG-HRP conjugate (CST, #7074 S, 1:5000).
Supplementary Figure 11 Quantification of labelling yields of endogenous FKBP12 in C2C12 cells. After C2C12 cells were incubated with LDNAS A 1 (1 µM) for 1 h, the cells were washed twi ce with PBS and l ys ed with R IPA buffer (pH 7.4, 25 mM Tris–HCl, 150 mM NaCl, 0.1% SDS, 1% Nonidet P-40, 0.25% deoxycholic acid) containing 1% protease inhibitor cocktail and rapamycin (10 µM) , which were aliquoted as input samples. All biotinylated proteins in the lysate were captured with Streptavidin agarose beads ( S Av -agarose, Thermo ). The flow through and elution fraction, as well as i nput samples, wer e subjected to Western blotting analysis using SAv- HRP and anti-FKBP12 antibody. Th e labelling yields were calculated by the following equation( Supplementar y Equation1) :
LLLLLLLLLLLLLLLLLL yy LLLLLLyy ( %) = IILLII LLLLII LLIIyyFFFFFFFF12 ,IIIIIIIIII – IILLII LLLLII LLIIyyFFFFFFFF12,FFFFFFFF IIhrrFFIIrr h × 100 ( 1) IILLII LLLLII LLIIyyFFFFFFFF12 ,IIIIIIIIII
Experiments were performed in triplicates (Ex.1–Ex.3), and the labelling yields of endogenous FKBP12 in C2C12 cells at 1 h with 1 were estimated to be 78 ± 2 % (mean ± standard deviation). Control, a sample without labelling; *, Nonspecific band derived from […]

[4] = Evaluation of stabilities of LDNASA reagents (hydrolysis in aqueous buffer, HPLC); conditions: for fraction hydrolysed: after incubation for 48 h at 37 °C, 50 mM HEPES pH 7.2
Protocol: FKBP12 labelling was conducted in test tubes by incubating each NASA reagent (1–3) (10 µM) with purified recombinant (wild-type) FKBP12[13] (5 µM, Mw: 11 914 Da) at 37 °C in a buffer solution (pH 7.2). The labelling reactions were monitored by matrix-assisted desorption/ionisation time-of-flight mass spectrometry (MALDI-TOF MS). […] The intrinsic reactivity of the reagents was evaluated by the hydrolysis rate in aqueous buffer.
LDNASA 1–3 (10 μM) and internal standard (Trimethoprim, 10 μM) were incubated in HEPES buffer (50 mM, pH 7.2) at 37 °C. Samples at different time points were taken and analysed by RP-HPLC.

eDHFR = biological target: T3, eDHFR (Escherichia coli, UniProt P0ABQ4); test: Kinetic analysis of eDHFR labelling; format: biochemical; conditions: for kL, labelling rate constant: eDHFR 300 nM, HEPES 1 mM pH 7.2, 37 °C, mean of triplicate ± s.d.; for kinact/KI / Kd: eDHFR, pH 7.2, 37 °C; for kinact/KI: read-out: kL/Kd, second-order rate constant; for Kd: from curve fitting of kapp vs reagent concentration
T3 construct: thioredoxin (N, cleaved yes); made in house; host or cells: E. coli Top10
T3 sequence (P0ABQ4 whole entry): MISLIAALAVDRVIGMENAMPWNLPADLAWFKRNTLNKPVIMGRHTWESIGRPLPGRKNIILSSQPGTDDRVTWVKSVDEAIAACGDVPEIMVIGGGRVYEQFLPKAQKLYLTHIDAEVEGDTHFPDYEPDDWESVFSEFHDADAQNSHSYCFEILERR

SKBR3 cells = test: Cell viability assay (WST-8); conditions: SKBR3, 3 h treatment, washing, further 69 h
Protocol: The cell viability was assessed using Cell Counting Kit-8 (Dojin).

[5] = system: Hsp90-client proteins HER2, cRaf, Akt and pAkt; test: Western blotting of Hsp90 client proteins; conditions: SKBR3, 3 h treatment, washing, further 21 h
Protocol: We also examined the expression levels of client proteins of Hsp90 (Fig. 6e, f).
The cells were washed with PBS, and lysed with RIPA buffer containing 1% protease inhibitor cocktail. The lysed samples were centrifuged (15 200 × g, 10 min at 4 °C). The protein concentrations of supernatant were analysed by BCA assay, and the normalised lysates were mixed with 1/4 volume of 5 × sample buffer containing 250 mM DTT and vortexed for 1 h at room temperature.

[6] = biological target: N-terminal ATP binding domain of Hsp90α (Homo sapiens, UniProt P07900)
Description: courses of the depletion of native (non- labelled ) N-terminal ATP binding domain of Hsp90α
Purified N -terminal ATP binding domain of
The pseudo- first order reaction rates (k app) were obtained by fitting the dat a to Supplementary
Equation (3). (b) The dependence of kapp upon the concentration of reagent 12. Kinetic
parameters for covalent inhibition (ki nact and Ki) were obtained by fitting the data to
Supplementary Equation (4).

[7] = biological target: N-terminal domain of Hsp90α (Homo sapiens, UniProt P07900); test: In vitro labelling of N-terminal domain of Hsp90α (MALDI-TOF MS); conditions: 6.4 µM protein, 10 µM 12, 37 °C; at Lys 58
Protocol: Aliquots at different time points were taken and then desalted using a Ziptip-C4. The modification yields were determined by MALDI-TOF MS (matrix: sinapic acid)
Reaction conditions: 6.4 µ M

intracellular Hsp90 = conditions: SKBR3 cells, pre-treated 1–10 µM for 3 h, washed, then 11 0.5 µM
Description: The cells were washed, lysed and analysed by in-gel fluorescence imaging. […] Error bars represent s.d., n = 3

FR = biological target: FR; parameters: method as in PMID 2552922; conditions: cited from earlier work

SMILES: CC(C)NCCCn1c(Sc2cc(Cl)cc(Cl)c2)nc2c(N)ncnc21 [PU-WS13]
IC50 (Hsp90α): 27000 nM | inhibition of Hsp90 labelling by 11 (endogenous Hsp90): less potent inhibition

SMILES: CCC(C)(C)C(=O)C(=O)N1CCCC[C@H]1C(=O)O[C@H](CCc1ccc(OC)c(OC)c1)c1cccc(OCC(=O)NCCCCCNC(=O)c2ccc(S(=O)(=O)N(CC#N)C(=O)CCCC[C@@H]3SCC4NC(=O)NC43)cc2)c1 (some centres unmarked) [compound 1]
FKBP12 labelling yield (FKBP12 [1]; within 15 min): 98% | initial rate, fold faster than 2 (FKBP12 [1]; FKBP12 labelling, 1 versus 2): 49 fold | initial rate, fold faster than 3 (FKBP12 [1]; FKBP12 labelling, 1 versus 3): 105 fold | FKBP12 labelling in the presence of rapamycin (competitive ligand) (FKBP12 [1]; in vitro, with rapamycin): completely abolished | kL, labelling rate constant (FKBP12 [2]): (6.1 ± 0.6) × 10^−3 s^−1 | kL, fold higher than that of LDT 5 (FKBP12 [2]; FKBP12 labelling): 635 fold | Kd (FKBP12 [2]): 210 nM | kinact/KI (FKBP12 [2]): 29000 M⁻¹ s⁻¹ | ratio of unspecific to specific labelling (FKBP12 [3]; HeLa cell lysate with 1 µM FKBP12, reagent 1–20 µM, 1 h): less than 0.15 | incubation time after which the labelled band was detectable (endogenous FKBP12): 10 min | labelling yield of endogenous FKBP12 (endogenous FKBP12; 60 min, 37 °C): 78 ± 2% and 78% | labelling yield of endogenous FKBP12 (endogenous FKBP12; 120 min): almost quantitative | half-life at 10 µM ([4]; HEPES buffer, pH 7.2): 43 h

FKBP12 labelling yield (FKBP12 [1]; after a 2-h incubation): 22% | fraction hydrolysed [4]: 5%
SMILES: CCC(C)(C)C(=O)C(=O)N1CCCC[C@H]1C(=O)O[C@H](CCc1ccc(OC)c(OC)c1)c1cccc(OCC(=O)NCCCCCNC(=O)c2ccc(S(=O)(=O)N(Cc3ccc([N+](=O)[O-])cc3)C(=O)CCCC[C@@H]3SCC4NC(=O)NC43)cc2)c1 (some centres unmarked) [compound 2]

SMILES: CCC(C)(C)C(=O)C(=O)N1CCCC[C@H]1C(=O)O[C@H](CCc1ccc(OC)c(OC)c1)c1cccc(OCC(=O)NCCCCCNC(=O)c2ccc(S(=O)(=O)N(Cc3ccc([N+](=O)[O-])cc3[N+](=O)[O-])C(=O)CCCC[C@@H]3SCC4NC(=O)NC43)cc2)c1 (some centres unmarked) [compound 3]
FKBP12 labelling yield (FKBP12 [1]; after a 2-h incubation): 17% | fraction hydrolysed [4]: 5%

SMILES: CCC(C)(C)C(=O)C(=O)N1CCCCC1C(=O)OC(CCc1ccc(OC)c(OC)c1)c1cccc(OCC(=O)N2CCN(C(=O)c3cccc(S(=O)(=O)OCCOCCOCCNC(=O)CCCCC4SCC5NC(=O)NC54)c3)CC2)c1 (centres unmarked) [compound 5, reference compound]
kL, labelling rate constant (FKBP12 [2]): (9.6 ± 0.2) × 10^−6 s^−1 | Kd (FKBP12 [2]): 210 nM | kinact/KI (FKBP12 [2]): 45 ± 6 M⁻¹ s⁻¹ | endogenous FKBP12 labelling (endogenous FKBP12; <120 min): failed to label FKBP12

SMILES: CCN(CC)c1ccc2cc(C(=O)NCCOCCOC(=O)n3cnc(CC(=O)NCCCCCNC(=O)CCCCOc4c(OC)cc(Cc5cnc(N)nc5N)cc4OC)c3)c(=O)oc2c1 [compound 6]
kL, labelling rate constant (eDHFR): (5.8 ± 0.1) × 10^−6 s^−1 | kinact/KI (eDHFR): 11 ± 1 M⁻¹ s⁻¹ | Kd (eDHFR): 550 nM

SMILES: CCN(CC)c1ccc2cc(C(=O)Oc3c(Br)cc(C(=O)NCCCCCNC(=O)CCCCOc4c(OC)cc(Cc5cnc(N)nc5N)cc4OC)cc3Br)c(=O)oc2c1 [compound 7]
kL, labelling rate constant (eDHFR): (3.4 ± 0.3) × 10^−4 s^−1 | kinact/KI (eDHFR): 590 M⁻¹ s⁻¹ | Kd (eDHFR): 580 nM

SMILES: COc1cc(C(=O)C(=O)N2CCCCC2C(=O)NCCOCCOCC(=O)NCCCCCNC(=O)c2ccc(S(=O)(=O)N(CC#N)C(=O)CCCCC3SCC4NC(=O)NC43)cc2)cc(OC)c1OC (centres unmarked) [compound 8]
kL, labelling rate constant (FKBP12 [2]): (7.6 ± 1.7) × 10^−3 s^−1 | kL/Kd, fold less than 1 (FKBP12 [2]; FKBP12 labelling): 392 fold | Kd (FKBP12 [2]): 100000 nM | kinact/KI (FKBP12 [2]): 74 ± 19 M⁻¹ s⁻¹ | concentration required to obtain the same signal intensity as biotinylated FKBP12 labelled by 1 (FKBP12 [3]; HeLa cell lysate with 1 µM FKBP12, 1 h, 1 at 1 µM): 20 µM

Ki [6]: 62 nM | kinact/KI ([6]; pH 7.2, read-out: second-order rate constant of the covalent inhibition): 29000 M⁻¹ s⁻¹
SMILES: N#CCN(C(=O)CCCC(=O)NCCCn1c(Sc2cc3c(cc2I)OCO3)nc2c(N)ncnc21)S(=O)(=O)c1ccccc1 [compound 12]
cytotoxicity / growth inhibitory effect after washout (SKBR3 cells): clearly showed a growth inhibitory effect | Hsp90-client protein levels after washout [5]: decrease in Hsp90-client proteins was also observed | covalent attachment of the PU-H71 ligand to Hsp90 N-terminal domain [7]: quantitative and single covalent attachment | blocking of fluorescent labelling of Hsp90 by 11 after washout (intracellular Hsp90): strongly inhibited the fluorescent labelling

SMILES: CN(Cc1cnc2nc(N)nc(N)c2n1)c1ccc(C(=O)N[C@@H](CCC(=O)O)C(=O)O)cc1 [methotrexate]
Kd (FR): ~200 nM
